# Results from patent publication US4497818A, “2-(1,4-Benzodioxan-2-ylalkyl)imidazoles useful as antihypertensives and platelet aggregation inhibitors” (Syntex (U.S.A.) Inc., priority 1981, dated 1985).
# Read-outs that look alike come from different tables or passages of the source.
# Columns and labels:
# [1] = molecular target: T1, post-synaptic α-adrenoceptor (α1) (Rattus norvegicus, UniProt P43140); assay: Post-synaptic α-adrenoceptor blockade (epididymal portion of rat vas deferens, contractile effects of phenylephrine); format: cell-based; details: phenylephrine agonist, number of determinations in parentheses; for Kb: for 1-ethyl b174 = lot No. 1, b175 = lot No. 2, read-out: pA2 (α1) (converted)
# T1 construct: from tissue; host or cells: rat isolated vas deferens, epididymal portion
# T1 sequence (P43140 1-466): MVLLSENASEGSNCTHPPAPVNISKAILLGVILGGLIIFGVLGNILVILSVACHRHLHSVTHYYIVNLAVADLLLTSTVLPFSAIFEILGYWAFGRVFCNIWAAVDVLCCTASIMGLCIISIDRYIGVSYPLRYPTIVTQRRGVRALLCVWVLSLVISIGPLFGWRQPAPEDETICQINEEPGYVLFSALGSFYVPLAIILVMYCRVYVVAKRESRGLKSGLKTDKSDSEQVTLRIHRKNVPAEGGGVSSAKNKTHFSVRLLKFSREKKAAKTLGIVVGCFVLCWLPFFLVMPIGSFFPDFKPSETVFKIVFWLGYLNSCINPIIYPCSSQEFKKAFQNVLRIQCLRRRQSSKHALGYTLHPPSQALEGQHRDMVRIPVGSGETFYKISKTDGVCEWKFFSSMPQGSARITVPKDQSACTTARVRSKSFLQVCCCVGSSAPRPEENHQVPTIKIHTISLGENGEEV
# Excerpt: The contralateral portions served as control tissues.
# J. Pharmacol.; 14: 48-58 (1959).
# [2] = LD50, intraperitoneal injection in mice; details: mouse, in vivo, ip, per body weight
# [3] = tested on: spontaneously hypertensive rats; assay: Antihypertensive activity in spontaneously hypertensive rats; format: in vivo, rat; details: 50 mg per kg orally on two consecutive mornings; hydrochloride salt; measured during four hours after second dose
# Protocol: Spontaneously hypertensive rats were divided into groups of four animals each with approximately equal mean systolic blood pressures. One such group serves as a control against another group which is given the compound to be tested. On two consecutive mornings, the test group was dosed orally with 50 mg per kg of 1-ethyl-2-(1,4-benzodioxane-2-ylmethyl)imidazole as a hydrochloride salt which was suspended in a vehicle of water and tween. The control group received vehicle only. Immediately after dosing on the second day, the rats were put in restrainers and placed in a heated chamber at 30° C. for four hours.
# During this time, systolic blood pressures were determined at four consecutive 20 second intervals using photoelectric transducers. The mean systolic blood pressure of each rat (as an average of these four measurements) was recorded. The results are given as percentage lowering of the mean systolic blood pressure in the experimental as compared with the control group.
# blood platelets = assay: Platelet aggregation inhibition; format: cell-based; details: hydrochloride salt; for inhibition at 500 µM: at 5 × 10^-4 M, read-out: inhibition From Maximum Height (ΔT)
# Protocol: Blood platelets are collected in the standard manner, and incubated in an Aggregation Module Incubator-Cuvette in the presence of either the inhibitor to be tested, or without said inhibitor as a control. The aggregation of the platelets is observed after the addition of an inducer, and the samples are evaluated for the presence of a lag period and the slope of the aggregation curve, as well as the maximum height of the aggregation curve in comparison to the control.
smiles,measurement,setting,value
"c1ccc2c(c1)OCC(CCc1ncc[nH]1)O2 (stereo not drawn) [2-(2-(1,4-benzodioxan-2-yl)ethyl)imidazole]",Kb,[1],0.617 µM
"c1ccc2c(c1)OCC(Cc1ncc[nH]1)O2 (stereo not drawn) [2-(1,4-benzodioxan-2-ylmethyl)imidazole]",LD50,[2],70 mg/kg
same,Kb,[1],0.794 µM
"CCn1ccnc1CC1COc2ccccc2O1 (stereo not drawn) [1-ethyl-2-(1,4-benzodioxane-2-ylmethyl)imidazole]",lowering of the mean systolic blood pressure compared with control group,[3],29%
same,inhibition at 1000 µM,"blood platelets; inducer ADP (5 × 10^-6 M), at 10^-3 M, read-out: inhibition From Slope (Rate)",20%
same,IC50,"blood platelets; inducer ADP (5 × 10^-6 M), read-out: IC50 From Maximum Height (ΔT)",1000 µM
same,IC50,"blood platelets; inducer arachidonic acid (2.5 × 10^-4 M), read-out: IC50 From Maximum Height (ΔT)",190 µM
same,IC50,"blood platelets; inducer arachidonic acid (2.5 × 10^-4 M), read-out: IC50 From Slope (Rate)",310 µM
same,inhibition at 500 µM,blood platelets; inducer collagen (30&),27%
same,IC50,"blood platelets; inducer collagen (30&), read-out: IC50 From Slope (Rate)",450 µM
same,inhibition at 50 µM,"blood platelets; inducer epinephrine (5 × 10^-6 M), 5 × 10^-5 M, read-out: inhibition From Slope (Rate)",99%
same,inhibition at 500 µM,blood platelets; inducer epinephrine (5 × 10^-6 M),5%
"CCn1ccnc1CC1COc2ccccc2O1 (stereo not drawn) [1-ethyl-2-(1,4-benzodioxan-2-ylmethyl)imidazole]",LD50,[2],200 mg/kg
same,pA2 (α1),"[1]; for 1-ethyl b174 = lot No. 1, b175 = lot No. 2",4.00
same,Kb,[1],100 µM
"Cn1ccnc1CC1COc2ccccc2O1 (stereo not drawn) [1-methyl-2-(1,4-benzodioxan-2-ylmethyl)imidazole]",Kb,[1],50.1 µM
"CCCn1ccnc1CC1COc2ccccc2O1 (stereo not drawn) [1-propyl-2-(1,4-benzodioxan-2-ylmethyl)imidazole]",LD50,[2],200 mg/kg
same,Kb,[1],63.1 µM
